Results on 3 compounds are retold here after ChEMBL document CHEMBL5696442, “Discovery of type II inhibitors of TGFβ-activated kinase 1 (TAK1) and mitogen-activated protein kinase kinase kinase kinase 2 (MAP4K2)” (J Med Chem, 2015).

Structures are written as SMILES. The source made the active and inactive calls. No cut-off for these calls is given here.

The target in assay [1] is Mitogen-activated protein kinase kinase kinase kinase 4 (Homo sapiens, UniProt O95819). As to the kind of experiment: Inhibition of ZC1/HGK Lys2 labeling site in human Huh-7 cells at 1 uM by KiNativ Profiling analysis relative to control. Format: cell-based.
Chain of Mitogen-activated protein kinase kinase kinase kinase 4 (O95819 2-1239 limits assumed): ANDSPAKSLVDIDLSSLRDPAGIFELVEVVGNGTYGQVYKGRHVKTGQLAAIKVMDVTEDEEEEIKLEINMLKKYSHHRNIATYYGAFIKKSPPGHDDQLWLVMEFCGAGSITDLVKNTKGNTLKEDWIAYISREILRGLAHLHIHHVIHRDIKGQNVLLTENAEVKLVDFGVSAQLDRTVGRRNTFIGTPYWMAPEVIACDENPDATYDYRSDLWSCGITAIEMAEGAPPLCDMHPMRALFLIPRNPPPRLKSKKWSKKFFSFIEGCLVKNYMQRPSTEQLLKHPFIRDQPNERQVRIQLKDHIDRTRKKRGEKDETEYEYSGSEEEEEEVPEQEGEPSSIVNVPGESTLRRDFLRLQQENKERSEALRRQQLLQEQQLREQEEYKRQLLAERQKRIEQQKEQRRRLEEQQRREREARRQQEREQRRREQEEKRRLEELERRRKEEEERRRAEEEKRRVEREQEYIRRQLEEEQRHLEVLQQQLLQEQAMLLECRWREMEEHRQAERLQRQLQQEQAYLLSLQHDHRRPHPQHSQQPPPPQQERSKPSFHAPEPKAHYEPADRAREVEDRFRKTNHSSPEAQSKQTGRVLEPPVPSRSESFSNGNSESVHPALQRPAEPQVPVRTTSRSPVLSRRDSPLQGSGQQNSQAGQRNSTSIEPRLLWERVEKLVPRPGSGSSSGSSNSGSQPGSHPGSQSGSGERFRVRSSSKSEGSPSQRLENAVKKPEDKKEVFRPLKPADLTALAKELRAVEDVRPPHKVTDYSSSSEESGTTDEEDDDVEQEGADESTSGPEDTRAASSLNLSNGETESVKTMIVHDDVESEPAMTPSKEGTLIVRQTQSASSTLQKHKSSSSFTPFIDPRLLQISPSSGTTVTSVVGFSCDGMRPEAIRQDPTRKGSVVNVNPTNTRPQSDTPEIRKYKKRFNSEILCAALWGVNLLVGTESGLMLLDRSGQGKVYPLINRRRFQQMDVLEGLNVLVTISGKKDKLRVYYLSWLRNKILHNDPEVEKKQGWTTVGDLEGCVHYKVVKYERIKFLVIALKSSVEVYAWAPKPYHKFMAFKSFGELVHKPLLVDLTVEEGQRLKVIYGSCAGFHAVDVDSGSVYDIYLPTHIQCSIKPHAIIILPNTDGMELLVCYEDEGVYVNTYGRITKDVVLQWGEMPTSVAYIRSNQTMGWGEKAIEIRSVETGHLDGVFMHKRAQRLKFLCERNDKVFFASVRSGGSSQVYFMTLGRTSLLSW
Assay [2] has as its target RAF proto-oncogene serine/threonine-protein kinase (Homo sapiens, UniProt P04049). As to the kind of experiment: Inhibition of RAF1 Lys2 labeling site in human Huh-7 cells at 1 uM by KiNativ Profiling analysis relative to control. Type of assay: cell-based.
For assay [3], the target named is T1, Mitogen-activated protein kinase kinase kinase 3 (Homo sapiens) (UniProt Q99759).
T1 sequence (whole entry): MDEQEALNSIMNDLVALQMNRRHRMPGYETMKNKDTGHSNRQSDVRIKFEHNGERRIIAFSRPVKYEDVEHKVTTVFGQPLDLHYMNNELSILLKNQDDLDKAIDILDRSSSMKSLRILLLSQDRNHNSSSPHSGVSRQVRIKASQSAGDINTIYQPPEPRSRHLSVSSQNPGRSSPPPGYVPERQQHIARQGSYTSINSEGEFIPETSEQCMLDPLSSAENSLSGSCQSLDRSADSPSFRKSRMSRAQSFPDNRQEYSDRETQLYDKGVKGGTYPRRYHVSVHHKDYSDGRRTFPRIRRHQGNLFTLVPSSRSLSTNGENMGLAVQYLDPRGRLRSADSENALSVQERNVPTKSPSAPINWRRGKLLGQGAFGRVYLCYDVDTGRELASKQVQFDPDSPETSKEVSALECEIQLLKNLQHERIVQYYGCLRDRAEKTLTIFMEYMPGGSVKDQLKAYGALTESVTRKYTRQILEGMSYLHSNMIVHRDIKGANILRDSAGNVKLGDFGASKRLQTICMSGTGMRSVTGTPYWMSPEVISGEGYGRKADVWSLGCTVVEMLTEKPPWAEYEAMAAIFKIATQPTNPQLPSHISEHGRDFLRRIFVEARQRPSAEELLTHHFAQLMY
As to the kind of experiment: Inhibition of MAP3K3 Lys2 labeling site in human Huh-7 cell lysate at 1 uM by KiNativ Profiling analysis relative to control. Type of assay: subcellular.

The target of assay [4] is Tyrosine-protein kinase Lck (Homo sapiens) (UniProt P06239). Description: Inhibition of LCK (unknown origin) at 1 uM by Ambit Kinomescan binding assay relative to control.
Chain of Tyrosine-protein kinase Lck (Homo sapiens) (P06239 2-509 limits assumed): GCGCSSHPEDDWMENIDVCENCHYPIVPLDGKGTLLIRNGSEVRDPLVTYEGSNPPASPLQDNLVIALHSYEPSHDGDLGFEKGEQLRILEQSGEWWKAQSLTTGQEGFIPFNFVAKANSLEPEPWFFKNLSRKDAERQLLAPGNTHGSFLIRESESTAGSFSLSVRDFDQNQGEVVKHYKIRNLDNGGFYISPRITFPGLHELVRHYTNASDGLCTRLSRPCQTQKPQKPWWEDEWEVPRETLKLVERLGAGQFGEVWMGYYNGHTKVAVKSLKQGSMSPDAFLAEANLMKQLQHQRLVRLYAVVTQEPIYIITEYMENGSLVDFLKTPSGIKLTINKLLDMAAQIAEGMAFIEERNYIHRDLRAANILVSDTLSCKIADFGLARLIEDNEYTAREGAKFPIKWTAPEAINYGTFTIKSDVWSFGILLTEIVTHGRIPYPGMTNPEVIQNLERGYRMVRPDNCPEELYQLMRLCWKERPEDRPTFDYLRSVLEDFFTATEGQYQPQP
The target of assay [5] is Tyrosine-protein kinase ABL1 (Homo sapiens, UniProt P00519). Description: Inhibition of nonphosphorylated ABL1 (unknown origin) at 1 uM by Ambit Kinomescan binding assay relative to control.
Chain of Tyrosine-protein kinase ABL1 (P00519 whole entry): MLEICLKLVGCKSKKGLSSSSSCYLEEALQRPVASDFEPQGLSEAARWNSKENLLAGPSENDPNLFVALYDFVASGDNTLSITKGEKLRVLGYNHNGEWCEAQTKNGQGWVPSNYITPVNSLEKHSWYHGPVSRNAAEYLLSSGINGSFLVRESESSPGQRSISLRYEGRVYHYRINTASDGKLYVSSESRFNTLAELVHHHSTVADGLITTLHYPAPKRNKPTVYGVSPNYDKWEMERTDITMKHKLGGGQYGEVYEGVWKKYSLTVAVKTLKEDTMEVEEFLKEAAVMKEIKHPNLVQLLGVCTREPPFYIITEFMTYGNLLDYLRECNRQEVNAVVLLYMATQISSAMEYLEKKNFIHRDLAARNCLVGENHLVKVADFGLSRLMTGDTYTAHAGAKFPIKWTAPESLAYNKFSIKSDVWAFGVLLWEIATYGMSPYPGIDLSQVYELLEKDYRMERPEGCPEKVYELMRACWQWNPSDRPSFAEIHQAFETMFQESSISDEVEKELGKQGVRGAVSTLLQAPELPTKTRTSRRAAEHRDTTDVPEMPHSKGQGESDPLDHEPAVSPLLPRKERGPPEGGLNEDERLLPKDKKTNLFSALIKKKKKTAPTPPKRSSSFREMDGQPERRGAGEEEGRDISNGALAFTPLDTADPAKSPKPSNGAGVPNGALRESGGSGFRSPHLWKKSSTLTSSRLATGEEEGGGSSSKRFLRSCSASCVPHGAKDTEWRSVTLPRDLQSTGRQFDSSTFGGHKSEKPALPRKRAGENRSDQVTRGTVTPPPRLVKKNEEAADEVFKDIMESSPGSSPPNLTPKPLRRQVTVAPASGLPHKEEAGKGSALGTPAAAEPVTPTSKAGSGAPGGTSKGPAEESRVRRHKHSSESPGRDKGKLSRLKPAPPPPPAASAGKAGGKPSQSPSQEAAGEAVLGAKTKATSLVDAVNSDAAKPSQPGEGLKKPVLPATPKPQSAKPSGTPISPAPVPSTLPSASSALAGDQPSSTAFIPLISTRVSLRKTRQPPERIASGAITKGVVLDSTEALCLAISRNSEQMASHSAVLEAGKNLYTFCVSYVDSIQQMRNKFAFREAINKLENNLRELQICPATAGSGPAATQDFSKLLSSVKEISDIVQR
Assay [6] concerns the target Serine/threonine-protein kinase 32C (Homo sapiens) (UniProt Q86UX6). Description: Inhibition of YANK3 Lys2 labeling site in human A-375 cells at 0.05 uM by KiNativ Profiling analysis relative to control. Format: cell-based.
Assay [7] concerns Mast/stem cell growth factor receptor Kit (Homo sapiens), P10721 [D816H]. Description: Inhibition of KIT D816H mutant (unknown origin) at 1 uM by Ambit Kinomescan binding assay relative to control; values are per cent of control.
Assay [8] has as its target T2, Ephrin type-B receptor 2 (Homo sapiens) (UniProt P29323).
T2 sequence (whole entry): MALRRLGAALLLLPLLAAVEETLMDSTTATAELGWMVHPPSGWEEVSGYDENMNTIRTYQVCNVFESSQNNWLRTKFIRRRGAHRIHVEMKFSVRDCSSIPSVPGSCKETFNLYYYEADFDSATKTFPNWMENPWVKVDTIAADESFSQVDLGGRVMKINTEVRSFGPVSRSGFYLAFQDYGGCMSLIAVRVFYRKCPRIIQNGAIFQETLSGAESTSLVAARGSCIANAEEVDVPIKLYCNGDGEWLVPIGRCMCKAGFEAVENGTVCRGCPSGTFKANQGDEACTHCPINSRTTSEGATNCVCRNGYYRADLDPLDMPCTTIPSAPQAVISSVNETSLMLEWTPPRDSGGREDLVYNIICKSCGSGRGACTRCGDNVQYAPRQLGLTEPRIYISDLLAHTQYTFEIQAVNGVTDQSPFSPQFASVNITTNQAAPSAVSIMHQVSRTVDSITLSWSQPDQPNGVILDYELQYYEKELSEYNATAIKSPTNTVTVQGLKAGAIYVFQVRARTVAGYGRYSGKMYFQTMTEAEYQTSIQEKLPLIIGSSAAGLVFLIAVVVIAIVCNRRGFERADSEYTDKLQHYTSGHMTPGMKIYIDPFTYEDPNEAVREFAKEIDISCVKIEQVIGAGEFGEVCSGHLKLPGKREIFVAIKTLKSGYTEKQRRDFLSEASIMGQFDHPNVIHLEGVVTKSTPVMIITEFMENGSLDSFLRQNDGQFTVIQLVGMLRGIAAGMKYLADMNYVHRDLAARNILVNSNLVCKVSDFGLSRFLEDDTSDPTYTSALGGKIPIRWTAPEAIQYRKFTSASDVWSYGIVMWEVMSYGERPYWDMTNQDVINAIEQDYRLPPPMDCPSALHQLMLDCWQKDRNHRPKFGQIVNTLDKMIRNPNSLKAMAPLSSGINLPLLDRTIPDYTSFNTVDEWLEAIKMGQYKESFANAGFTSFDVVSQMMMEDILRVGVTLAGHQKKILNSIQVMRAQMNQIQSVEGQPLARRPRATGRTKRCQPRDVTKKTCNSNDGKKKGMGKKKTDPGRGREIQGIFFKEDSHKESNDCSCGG
Description: Inhibition of EPHB2 (unknown origin) at 10 uM by Ambit Kinomescan binding assay relative to control.

For assay [9], the target named is Wee1-like protein kinase (Homo sapiens) (UniProt P30291). As to the kind of experiment: Inhibition of WEE1 (unknown origin) at 10 uM by Ambit Kinomescan binding assay.
Chain of Wee1-like protein kinase (Homo sapiens) (P30291 whole entry, looked up): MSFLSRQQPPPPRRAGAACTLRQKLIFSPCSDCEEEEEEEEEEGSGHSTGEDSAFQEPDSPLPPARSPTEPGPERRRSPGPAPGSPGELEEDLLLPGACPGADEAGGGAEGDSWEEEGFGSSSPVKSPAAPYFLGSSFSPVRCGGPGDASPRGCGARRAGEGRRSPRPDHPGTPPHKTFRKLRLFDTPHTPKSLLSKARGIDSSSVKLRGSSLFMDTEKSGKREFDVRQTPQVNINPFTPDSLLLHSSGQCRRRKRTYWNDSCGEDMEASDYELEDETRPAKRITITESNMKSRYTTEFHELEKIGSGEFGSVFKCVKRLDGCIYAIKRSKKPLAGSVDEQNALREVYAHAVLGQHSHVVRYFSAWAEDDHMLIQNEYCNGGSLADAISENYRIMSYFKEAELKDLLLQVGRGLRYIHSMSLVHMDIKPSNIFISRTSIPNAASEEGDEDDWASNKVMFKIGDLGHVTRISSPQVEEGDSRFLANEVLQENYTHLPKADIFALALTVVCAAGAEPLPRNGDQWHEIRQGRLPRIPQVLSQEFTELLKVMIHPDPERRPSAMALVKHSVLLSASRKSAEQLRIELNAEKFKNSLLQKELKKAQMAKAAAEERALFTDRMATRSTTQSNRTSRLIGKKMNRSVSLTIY

Chain of Serine/threonine-protein kinase 32C (Homo sapiens) (Q86UX6 whole entry): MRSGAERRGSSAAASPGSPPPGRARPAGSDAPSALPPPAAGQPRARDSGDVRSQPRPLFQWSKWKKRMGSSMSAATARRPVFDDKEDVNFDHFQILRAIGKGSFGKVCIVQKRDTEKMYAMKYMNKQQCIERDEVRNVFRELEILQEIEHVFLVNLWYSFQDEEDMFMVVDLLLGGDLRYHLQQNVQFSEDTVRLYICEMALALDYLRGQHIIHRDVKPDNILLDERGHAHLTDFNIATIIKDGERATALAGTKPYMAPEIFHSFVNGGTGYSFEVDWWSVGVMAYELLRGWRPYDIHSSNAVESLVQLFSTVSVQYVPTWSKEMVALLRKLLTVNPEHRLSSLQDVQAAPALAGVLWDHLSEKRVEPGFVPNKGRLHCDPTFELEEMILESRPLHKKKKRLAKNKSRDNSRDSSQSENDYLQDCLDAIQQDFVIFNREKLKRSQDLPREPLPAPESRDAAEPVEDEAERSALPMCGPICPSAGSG
Chain of RAF proto-oncogene serine/threonine-protein kinase (P04049 whole entry): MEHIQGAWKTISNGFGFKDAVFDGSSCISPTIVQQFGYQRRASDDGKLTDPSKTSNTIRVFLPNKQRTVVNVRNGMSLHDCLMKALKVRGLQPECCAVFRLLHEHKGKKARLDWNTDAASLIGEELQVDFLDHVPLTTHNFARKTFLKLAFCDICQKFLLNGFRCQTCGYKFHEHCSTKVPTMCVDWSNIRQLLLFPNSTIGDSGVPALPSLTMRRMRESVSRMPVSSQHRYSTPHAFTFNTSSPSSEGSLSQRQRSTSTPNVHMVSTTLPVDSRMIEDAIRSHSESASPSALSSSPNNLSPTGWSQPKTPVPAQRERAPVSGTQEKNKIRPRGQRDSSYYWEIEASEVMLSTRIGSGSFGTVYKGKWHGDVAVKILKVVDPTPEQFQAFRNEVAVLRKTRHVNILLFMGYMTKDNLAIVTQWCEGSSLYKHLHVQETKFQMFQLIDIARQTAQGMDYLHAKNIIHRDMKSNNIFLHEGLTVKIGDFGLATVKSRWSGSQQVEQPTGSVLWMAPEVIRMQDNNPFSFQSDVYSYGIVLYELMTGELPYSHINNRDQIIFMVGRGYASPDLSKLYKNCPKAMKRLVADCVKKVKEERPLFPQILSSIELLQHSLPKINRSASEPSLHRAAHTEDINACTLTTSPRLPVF

In general, inhibition refers to the drop in the measured response relative to a control, in per cent. Take `CNc1cc(Oc2cc(C(=O)Nc3cc(N4CCN(C)CC4)cc(C(F)(F)F)c3)ccc2C)ncn1`: the figures for the inhibition in [1], in assay [2] and in [3] were 9.7%, 34.1% and 1.9%, respectively.

As a reminder, the residual activity is the share of the control activity or signal that is left under treatment. Higher therefore signals much activity left. As for `CCN1CCN(Cc2ccc(NC(=O)c3ccc(C)c(/C=C/c4cnc5[nH]ccc5c4OC)c3)cc2C(F)(F)F)CC1`, the inhibition in assay [4] is 0.35%; in assay [5], 0%; in [6], -4.2%. For the same compound, the residual activity in assay [7] came out at 25%.

For the compound `CCN1CCN(Cc2ccc(NC(=O)c3ccc(C)c(Oc4ccnc5[nH]ccc45)c3)cc2C(F)(F)F)CC1`, the inhibition in [8] turned out to be 11%. In addition, the inhibition entry in assay [9] is “inactive”.
